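Briefly, cells in 96-well plates were exposed to five compound concentrations for 48 h, and endpoints were estimated by linear interpolation. The concentration for 50% growth inhibition is given as GI50.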 The source made the active and inactive calls. Cut-off read from the data, not from the text of the source: active = GI50 up to about 1.1 µM and inactive = higher. Where only a bound is given, the exact number is not on record here.

This assay concerns BT-549. Briefly: DTP human tumour cell line panel, 48 h.
A word on the GI50: it is the concentration that inhibits growth by half. As for `O=C(O)C(O)(c1ccc(-c2ccccc2)cc1)c1ccc(-c2ccccc2)cc1`, the GI50 was 20.5 µM (inactive). The value for `COc1ccc2[nH]c3cc4c(=O)c5cc(OC)ccc5[nH]c4cc3c(=O)c2c1` was > 100 µM (inactive); that for `CC(C)=NNc1snnc1C(N)=O` was > 100 µM (inactive); that for `CC1=C[C@H](O)[C@@]2(C)[C@@H]([C@@H]1C)[C@H]1CC[C@@H]3[C@@]4(C)CC[C@H](O)C(C)(C)[C@@H]4CC[C@@]3(C)[C@]1(C)C[C@@H]2O` was 23.9 µM (inactive).

On to `O=c1oc2ccc(Cl)cc2cc1-c1cn2ccsc2n1`, for which the GI50 is 24.1 µM (inactive).

Take `O=c1cc(NNc2ccc(F)cc2)[nH]c(=O)[nH]1`: the GI50 is 13.6 µM (inactive).

As to `S=c1cc(-c2ccc3c(c2)OCO3)s[nH]1`, the GI50 was > 100 µM (inactive). For the compound `OCCN(C1=NCCN1)/[N+](=C/c1ccccc1O)[CH-]c1ccccc1O`, the GI50 was 37.8 µM (inactive). The value for `OC1c2ccccc2[C@@H]2[C@H]1[C@@H](c1ccccc1)C1(Cc3ccccc3C1O)[C@H]2c1ccccc1` (stereo not given in full) was 14.7 µM (inactive); that for `CC1CC/C(=C\c2ccc(Cl)cc2)C2OC(N)=C(C#N)C(c3ccc(Cl)cc3)=C12` (stereo not given) was 15.2 µM (inactive).

With `CN[C@@H](Cc1cccc2ccccc12)C(=O)N[C@@H](CC(C)C)B(O)O`, the GI50 is < 0.01 µM (active). The value for `CCN1C(Cl)=NS(=O)(=O)c2ccccc21` was 17.5 µM (inactive); that for `CCc1ccccc1NC(=O)C(=O)CC(=O)c1sc(Nc2ccccc2Cl)nc1C` was 34.8 µM (inactive).

Regarding `OC(CN1CCCCC1)c1ccc(/C=C/c2ccc(Cl)cc2)cc1` (stereo not given), the GI50 is > 100 µM (inactive). The value for `COC(=O)c1ccc(C)cc1CC1Cc2ccc(C)cc2C1=O` (stereo not given) was 12.2 µM (inactive); that for `CCCCCCCCCCCCCCCCCCNC(=O)C(N)Cc1ccc(OCc2ccccc2)cn1` (stereo not given) was 23.4 µM (inactive). As to `O=C1Oc2ccccc2C(=O)/C1=C\Nc1nc(-c2ccc(O)c(O)c2)cs1`, the GI50 was 5.77 µM (inactive). The value for `Cc1ccc(OCC2OC(n3cnc4c(Cl)nc(Cl)nc43)CC2Oc2ccc(C)cc2)cc1` (stereo not given) was 2.17 µM (inactive); that for `O=C1C=Cc2c1csc2Br` was 27.4 µM (inactive). In the case of `C=CC[C@]1(/C=N/O)CN(S(=O)(=O)CC[Si](C)(C)C)C[C@H]2CC=CC[C@H]21`, the GI50 was 28.5 µM (inactive). As to `CC(C)c1c(P(=O)(c2ccccc2)c2ccccc2)n(C)c2ccccc12`, the GI50 was > 100 µM (inactive). The value for `COC1OC(C)/C(=N/O)C2OC(C)(C)OC12` (stereo not given) was > 100 µM (inactive); that for `CCOC(=O)c1ccc(NC(=O)Oc2ccc3c(C)cc(=O)oc3c2)cc1` was 17.2 µM (inactive). The value for `CCc1n[nH]c(=O)n1/N=C/c1ccc(/C=N/n2c(CC)n[nH]c2=O)cc1` was > 100 µM (inactive); that for `CC1(O)CC23CC1CCC2(C)C12CCCC(C)(C(=O)O1)C2CC3O` (stereo not given) was > 100 µM (inactive).

Consider `C[N+](C)=C/C=C(\Cl)c1ccc2ccccc2c1`, for which the GI50 was 17.7 µM (inactive). For `CCOC(=O)c1cc(I)c(-c2cc(C)no2)n1C`, the GI50 is 64.7 µM (inactive). The value for `Oc1ccc2cc(Br)ccc2c1-c1c(O)ccc2ccc(Br)cc12` was 14.7 µM (inactive); that for `COC(=O)C1(CCC(C)=O)CCCCCC1=O` (stereo not given) was > 100 µM (inactive); that for `CN1C2CCC1CC(=CCOC(c1ccc(F)cc1)c1ccc(F)cc1)C2` was 16.3 µM (inactive). Regarding `CO[P@]1(=O)O[C@@H](c2ccccc2)[C@H](O)[C@@]1(O)c1ccccc1`, the GI50 was > 100 µM (inactive). The value for `COC(=O)C1=CC(=O)OC1(OO)c1ccc(Br)cc1` (stereo not given) was > 100 µM (inactive); that for `N#CC(C#N)/N=N/c1ccc(-c2nc3ccccc3[nH]2)cc1` was 11 µM (inactive); that for `CC1(C)/C(=N\Nc2ccc([N+](=O)[O-])cc2[N+](=O)[O-])C2CCC1C2` (stereo not given) was > 100 µM (inactive). As to `C[C@@H]1C(=O)CC2(O)[C@@]13C[C@@H](OC(=O)[C@@H]3O)[C@@H](C)[C@@]21COC1=O` (stereo not given in full), the GI50 was > 100 µM (inactive).

The values above are taken from ChEMBL document CHEMBL1201862, “PubChem BioAssay data set” (2004).
